Test systems include A549 NSCLC; CCRF-CEM leukemia; KM12 colon; NCI-H226 lung; NCI-H522 lung; OVCAR-4 ovarian; OVCAR-8 ovarian; RXF 393 renal; SF-268 CNS; SF-295 CNS; SN12C renal; SR leukemia; SW-620 colon; UO-31 renal.
Common to all, as to assay: inhibition of tumour cell growth, NCI panel, 48 h

Where “and” joins values, the source holds several entries; their conditions need not be identical. Equal values may be shown once.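 48-hour exposure; five concentrations; linearly interpolated endpoints. Here, GI50 denotes the concentration required for 50% inhibition of growth. Definition used: TGI = concentration required for complete inhibition of growth.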

In the case of `CC(=O)C(CN(C)Cc1ccccc1)C(c1ccccc1)c1c(O)c2ccccc2oc1=O` (stereo unspecified), the TGI with A549 NSCLC is > 100 µM; in the assay on CCRF-CEM leukemia, > 100 µM; in the assay with KM12 colon, > 100 µM; in the assay on NCI-H226 lung, 99.5 µM; in the assay with NCI-H522 lung, > 100 µM; in the assay with OVCAR-4 ovarian, > 100 µM. Also, the TGI in the assay with OVCAR-8 ovarian, in the assay on RXF 393 renal, with SF-268 CNS, with SF-295 CNS, with SN12C renal and in the assay on SR leukemia was > 100 µM each time. For the same compound, the TGI with SW-620 colon is > 100 µM; in the assay on UO-31 renal, 83.7 µM.
In the case of `CC(C)CNC(=O)c1c(NC(=O)c2ccccc2)sc2[nH]c(=O)n(-c3ccccc3)c(=O)c12`, the TGI in the assay on A549 NSCLC is > 100 µM; in the assay with CCRF-CEM leukemia, > 89.6 µM; in the assay on KM12 colon, > 100 µM; in the assay on NCI-H226 lung it was > 100 µM; in the assay with NCI-H522 lung, > 100 µM; in the assay with OVCAR-4 ovarian it was > 100 µM. For the same compound, the TGI with OVCAR-8 ovarian is > 100 µM; with RXF 393 renal, 40 µM; in the assay on SF-268 CNS, > 100 µM; in the assay on SF-295 CNS, 67.1 µM; in the assay on SN12C renal, > 100 µM; with SR leukemia, > 90.7 µM. The TGI in the assay with SW-620 colon and with UO-31 renal was > 100 µM in each case.
In the case of `COc1ccccc1NC(=O)CC(=O)n1nc(-c2ccccc2)c(N=Nc2ccccc2[N+](=O)[O-])c1-c1ccccc1`, the TGI in the assay with A549 NSCLC, in the assay with CCRF-CEM leukemia, in the assay on KM12 colon, in the assay with NCI-H226 lung, with NCI-H522 lung and in the assay on OVCAR-4 ovarian was > 100 µM throughout. Moreover, the TGI in the assay on OVCAR-8 ovarian, in the assay on RXF 393 renal, in the assay on SF-268 CNS, in the assay with SF-295 CNS, with SN12C renal and with SR leukemia was > 100 µM in each case. The TGI in the assay on SW-620 colon and in the assay on UO-31 renal was > 100 µM each time.
As to `c1ccc(CNCCCNCCCCNCCCNCc2ccccc2)cc1`, the TGI with A549 NSCLC is 45.5 µM; in the assay on CCRF-CEM leukemia it was > 21.5 µM; with KM12 colon it was 21 µM; in the assay with NCI-H226 lung it was 17.2 µM; in the assay with NCI-H522 lung, 3.37 µM; with OVCAR-4 ovarian it was 33.1 µM. In addition, the TGI came out at 27 µM in the assay on OVCAR-8 ovarian; 25.7 µM with RXF 393 renal; 25.6 µM with SF-268 CNS; 35.2 µM with SF-295 CNS; 15.5 µM in the assay with SN12C renal; 25.6 µM in the assay with SR leukemia. Further, the figures for the TGI with SW-620 colon and in the assay with UO-31 renal were 9.13 µM and 25.7 µM, respectively.
Consider `N=C1/C(=C/c2ccccc2)C(=O)N=C2SC=NN12`, for which the TGI with A549 NSCLC, with CCRF-CEM leukemia, with KM12 colon, in the assay with NCI-H226 lung, in the assay on NCI-H522 lung and in the assay on OVCAR-4 ovarian was > 100 µM each time. For the same compound, the TGI in the assay with OVCAR-8 ovarian, in the assay on RXF 393 renal, with SF-268 CNS, in the assay on SF-295 CNS, in the assay with SN12C renal and in the assay on SR leukemia was > 100 µM each time. Also, the TGI in the assay with SW-620 colon and with UO-31 renal was > 100 µM throughout.
`[O-]/N=N\c1on[n+](CCc2ccccc2)c1Cc1c(/N=N/[O-])on[n+]1CCc1ccccc1`: the TGI with A549 NSCLC was > 100 µM; with CCRF-CEM leukemia it was > 100 µM; in the assay with KM12 colon, > 100 µM; with NCI-H226 lung, 98.3 µM; with NCI-H522 lung, 43.8 µM; in the assay with OVCAR-4 ovarian it was 36.7 µM. In addition, the TGI is 46.4 µM in the assay on OVCAR-8 ovarian; > 100 µM in the assay with RXF 393 renal; > 100 µM with SF-268 CNS; 74.2 µM in the assay on SF-295 CNS; > 100 µM in the assay with SN12C renal; > 100 µM in the assay on SR leukemia. The TGI with SW-620 colon and in the assay on UO-31 renal was > 100 µM throughout.
Take `CNC(=O)C1CCC(=O)N1CN(C(C)=O)c1ccccc1` (stereo unspecified): the TGI with A549 NSCLC was > 100 µM; in the assay on CCRF-CEM leukemia it was 0.426 µM; in the assay with KM12 colon, > 100 µM; in the assay on NCI-H226 lung, > 100 µM; in the assay on NCI-H522 lung, > 100 µM; with OVCAR-4 ovarian, > 100 µM. Besides, the TGI was > 100 µM with OVCAR-8 ovarian; > 100 µM in the assay on RXF 393 renal; > 100 µM with SF-268 CNS; > 100 µM in the assay with SF-295 CNS; > 100 µM with SN12C renal; 84 µM in the assay on SR leukemia. Besides, the TGI in the assay on SW-620 colon and in the assay with UO-31 renal was > 100 µM each time.
`CC(=O)c1c2c(cc3c1CC1(C3)Cc3ccc4c(c3C1=O)CCC4)CCC2` (stereo unspecified): the TGI with A549 NSCLC was > 100 µM; in the assay with CCRF-CEM leukemia it was > 100 µM; in the assay with KM12 colon it was > 100 µM; in the assay with NCI-H226 lung, > 100 µM; with NCI-H522 lung, 9.51 µM; in the assay on OVCAR-4 ovarian it was > 100 µM. Moreover, the TGI was > 100 µM with OVCAR-8 ovarian; > 100 µM in the assay with RXF 393 renal; > 100 µM in the assay with SF-268 CNS; > 100 µM in the assay with SF-295 CNS; > 100 µM with SN12C renal; 64 µM in the assay on SR leukemia. The TGI with SW-620 colon and in the assay with UO-31 renal was > 100 µM in each case.
For the compound `COC(=O)CCN1CCN(CCO)CC1C` (stereo unspecified), the TGI in the assay with A549 NSCLC, in the assay on CCRF-CEM leukemia, with KM12 colon, in the assay with NCI-H226 lung, in the assay with NCI-H522 lung and with OVCAR-4 ovarian was > 10 µM in each case. Moreover, the TGI in the assay with OVCAR-8 ovarian, in the assay with RXF 393 renal, with SF-268 CNS, in the assay on SF-295 CNS, with SN12C renal and with SR leukemia was > 10 µM in each case. In addition, the TGI with SW-620 colon and in the assay on UO-31 renal was > 10 µM throughout.
Turning to `COc1cc(CC(C)N[C@@H](C)c2ccccc2)cc(OC)c1` (stereo partly specified), the GI50 is 13 µM and > 100 µM in the assay with A549 NSCLC; 15.1 µM and > 100 µM in the assay on NCI-H226 lung; 11.8 µM and > 100 µM in the assay with OVCAR-8 ovarian; 12.3 µM and > 100 µM in the assay with SF-268 CNS; 11.8 µM and > 100 µM in the assay with SN12C renal; 11.7 µM and > 100 µM in the assay with SW-620 colon. In addition, the TGI in the assay on A549 NSCLC is 27.1 µM and > 100 µM; with CCRF-CEM leukemia, 24 µM and > 100 µM; in the assay on KM12 colon it was > 100 µM; with NCI-H226 lung it was 38.2 µM and > 100 µM; in the assay on NCI-H522 lung it was > 100 µM; in the assay on OVCAR-4 ovarian, 22.4 µM and > 100 µM. In addition, the TGI in the assay with OVCAR-8 ovarian is 25.7 µM and > 100 µM; with RXF 393 renal, > 100 µM; in the assay with SF-268 CNS it was 25.8 µM and > 100 µM; in the assay on SF-295 CNS, 21.5 µM and > 100 µM; in the assay on SN12C renal, 24.2 µM and > 100 µM; with SR leukemia, 15.2 µM and > 100 µM. Moreover, the TGI is 26.3 µM and > 100 µM in the assay on SW-620 colon; 13.9 µM and > 100 µM in the assay with UO-31 renal.
For the compound `CC(C)(C)OC(=O)N(CCCCNC(=O)c1ccccc1)CCCNC(=O)c1ccccc1`, the TGI in the assay on A549 NSCLC, in the assay with CCRF-CEM leukemia, with KM12 colon, with NCI-H226 lung, in the assay on NCI-H522 lung and in the assay on OVCAR-4 ovarian was > 100 µM each time. Also, the TGI in the assay on OVCAR-8 ovarian, in the assay with RXF 393 renal, in the assay on SF-268 CNS, in the assay on SF-295 CNS, with SN12C renal and in the assay with SR leukemia was > 100 µM each time. Further, the TGI in the assay with SW-620 colon and in the assay with UO-31 renal was > 100 µM each time.
As to `COC(=O)c1ccc(-n2c(C)nc(=O)c(-c3ccccc3)c2C)cc1`, the TGI with A549 NSCLC, in the assay with CCRF-CEM leukemia, with KM12 colon, in the assay on NCI-H226 lung, in the assay on NCI-H522 lung and in the assay with OVCAR-4 ovarian was > 100 µM in each case. Moreover, the TGI in the assay with OVCAR-8 ovarian, in the assay on RXF 393 renal, with SF-268 CNS, in the assay with SF-295 CNS, in the assay on SN12C renal and in the assay on SR leukemia was > 100 µM throughout. Further, the TGI in the assay with SW-620 colon and with UO-31 renal was > 100 µM in each case.
As to `CC(=O)O[C@@H]1[C@@H](C)[C@]2(CC(c3ccoc3)OC2O)C2CCC3O[C@]3(C)[C@]2(C)[C@@H]1OC(C)=O` (stereo partly specified), the TGI with A549 NSCLC was > 100 µM; with CCRF-CEM leukemia, 61.5 µM; with KM12 colon, 86.8 µM; in the assay with NCI-H226 lung it was 87.9 µM; with NCI-H522 lung it was 69.7 µM; with OVCAR-4 ovarian, > 100 µM. For the same compound, the TGI is > 100 µM in the assay with OVCAR-8 ovarian; > 100 µM in the assay on RXF 393 renal; > 100 µM in the assay with SF-268 CNS; > 100 µM with SF-295 CNS; > 100 µM in the assay on SN12C renal; 58 µM in the assay on SR leukemia. Further, the TGI in the assay on SW-620 colon and in the assay on UO-31 renal was > 100 µM in each case.
With `C=CCC1(O)C(=O)OC2C(O)COC21O` (stereo unspecified), the TGI in the assay on A549 NSCLC, in the assay on CCRF-CEM leukemia, in the assay on KM12 colon, with NCI-H226 lung, in the assay with NCI-H522 lung and with OVCAR-4 ovarian was > 100 µM in each case. The TGI in the assay with OVCAR-8 ovarian, with RXF 393 renal, in the assay on SF-268 CNS, with SF-295 CNS, in the assay on SN12C renal and in the assay with SR leukemia was > 100 µM throughout. Besides, the TGI with SW-620 colon and in the assay with UO-31 renal was > 100 µM each time.
Turning to `CC1C2CC(CC2O)C1(C)C` (stereo unspecified), the TGI in the assay with A549 NSCLC, with CCRF-CEM leukemia, with KM12 colon, in the assay with NCI-H226 lung, in the assay on NCI-H522 lung and with OVCAR-4 ovarian was > 100 µM in each case. In addition, the TGI with OVCAR-8 ovarian, with RXF 393 renal, in the assay on SF-268 CNS, in the assay on SF-295 CNS, in the assay on SN12C renal and in the assay on SR leukemia was > 100 µM throughout. In addition, the TGI in the assay with SW-620 colon and in the assay on UO-31 renal was > 100 µM in each case.

Source of the values: PubChem BioAssay (NCI).
